These results are taken from PMC12586182 (Frontiers in Oncology, 2025).

SMILES strings stand for the structures.

Common to all, as to assay: Kinase panel profiling at 1 µmol/L (mobility shift assay, Carna)
Format in all cases: biochemical
Holding throughout (conditions): 1 µmol/L of BTK inhibitor

The target in one assay is T1, EPHA4 (Homo sapiens, UniProt P54764).
T1 construct: purchased Carna Biosciences

For the next assay, the target named is T2, EPHA5 (Homo sapiens, UniProt P54756).
T2 construct: purchased Carna Biosciences

The target of the next assay is T3, AurA (Homo sapiens, UniProt O14965).
T3 construct: purchased Carna Biosciences
T3 sequence (O14965 1-403): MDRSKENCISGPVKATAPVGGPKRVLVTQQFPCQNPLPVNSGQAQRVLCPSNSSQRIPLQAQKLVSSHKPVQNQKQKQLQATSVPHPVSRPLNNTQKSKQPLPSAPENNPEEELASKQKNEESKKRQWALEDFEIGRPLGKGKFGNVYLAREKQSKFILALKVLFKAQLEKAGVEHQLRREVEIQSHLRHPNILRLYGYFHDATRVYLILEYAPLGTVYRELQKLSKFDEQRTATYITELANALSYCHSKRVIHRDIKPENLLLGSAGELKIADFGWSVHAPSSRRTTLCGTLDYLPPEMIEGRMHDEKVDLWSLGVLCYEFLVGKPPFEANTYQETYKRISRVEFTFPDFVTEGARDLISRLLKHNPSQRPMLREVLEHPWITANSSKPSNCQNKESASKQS

Another assay addresses T4, CaMK2γ (Homo sapiens, UniProt Q13555).
T4 construct: purchased Carna Biosciences

Another assay concerns the target T5, MNK1 (Homo sapiens, UniProt Q9BUB5).
T5 construct: purchased Carna Biosciences

The next assay concerns the target T6, MST2 (Homo sapiens, UniProt Q13188).
T6 construct: purchased Carna Biosciences
T6 sequence (Q13188 1-491): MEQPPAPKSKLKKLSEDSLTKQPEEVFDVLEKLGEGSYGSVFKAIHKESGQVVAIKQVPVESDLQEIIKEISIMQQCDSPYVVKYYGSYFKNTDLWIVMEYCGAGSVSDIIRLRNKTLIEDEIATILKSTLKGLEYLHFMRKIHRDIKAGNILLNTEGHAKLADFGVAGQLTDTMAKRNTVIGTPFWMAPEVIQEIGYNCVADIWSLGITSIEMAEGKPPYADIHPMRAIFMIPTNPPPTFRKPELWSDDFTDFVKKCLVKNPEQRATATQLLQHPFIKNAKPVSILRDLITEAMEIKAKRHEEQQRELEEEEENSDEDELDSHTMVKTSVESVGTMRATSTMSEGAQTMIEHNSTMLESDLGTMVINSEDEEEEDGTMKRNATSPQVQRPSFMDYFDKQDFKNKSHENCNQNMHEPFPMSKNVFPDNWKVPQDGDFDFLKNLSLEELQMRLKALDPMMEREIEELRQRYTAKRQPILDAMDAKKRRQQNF

A further assay deals with T7, PGK (Homo sapiens, UniProt Q13976).
T7 construct: purchased Carna Biosciences
T7 sequence (Q13976 1-671): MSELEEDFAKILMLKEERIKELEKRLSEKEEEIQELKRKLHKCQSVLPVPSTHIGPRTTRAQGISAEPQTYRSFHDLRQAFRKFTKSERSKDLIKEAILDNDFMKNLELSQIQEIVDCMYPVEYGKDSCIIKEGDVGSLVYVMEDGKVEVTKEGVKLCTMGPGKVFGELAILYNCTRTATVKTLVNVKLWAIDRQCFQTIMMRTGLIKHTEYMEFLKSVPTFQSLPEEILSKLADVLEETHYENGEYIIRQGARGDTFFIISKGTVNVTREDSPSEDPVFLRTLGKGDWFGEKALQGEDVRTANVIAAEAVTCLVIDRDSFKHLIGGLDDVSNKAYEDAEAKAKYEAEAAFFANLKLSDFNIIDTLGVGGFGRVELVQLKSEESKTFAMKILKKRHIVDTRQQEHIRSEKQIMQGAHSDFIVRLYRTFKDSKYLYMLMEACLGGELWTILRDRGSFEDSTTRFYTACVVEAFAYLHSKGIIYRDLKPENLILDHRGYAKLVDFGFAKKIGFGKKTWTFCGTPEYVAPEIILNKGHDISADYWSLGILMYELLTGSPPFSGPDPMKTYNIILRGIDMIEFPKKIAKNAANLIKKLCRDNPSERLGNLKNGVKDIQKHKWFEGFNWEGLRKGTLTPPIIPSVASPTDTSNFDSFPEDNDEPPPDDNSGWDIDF

A further assay concerns the target T8, TBK1 (Homo sapiens, UniProt Q9UHD2).
T8 construct: purchased Carna Biosciences
T8 sequence (Q9UHD2 1-729): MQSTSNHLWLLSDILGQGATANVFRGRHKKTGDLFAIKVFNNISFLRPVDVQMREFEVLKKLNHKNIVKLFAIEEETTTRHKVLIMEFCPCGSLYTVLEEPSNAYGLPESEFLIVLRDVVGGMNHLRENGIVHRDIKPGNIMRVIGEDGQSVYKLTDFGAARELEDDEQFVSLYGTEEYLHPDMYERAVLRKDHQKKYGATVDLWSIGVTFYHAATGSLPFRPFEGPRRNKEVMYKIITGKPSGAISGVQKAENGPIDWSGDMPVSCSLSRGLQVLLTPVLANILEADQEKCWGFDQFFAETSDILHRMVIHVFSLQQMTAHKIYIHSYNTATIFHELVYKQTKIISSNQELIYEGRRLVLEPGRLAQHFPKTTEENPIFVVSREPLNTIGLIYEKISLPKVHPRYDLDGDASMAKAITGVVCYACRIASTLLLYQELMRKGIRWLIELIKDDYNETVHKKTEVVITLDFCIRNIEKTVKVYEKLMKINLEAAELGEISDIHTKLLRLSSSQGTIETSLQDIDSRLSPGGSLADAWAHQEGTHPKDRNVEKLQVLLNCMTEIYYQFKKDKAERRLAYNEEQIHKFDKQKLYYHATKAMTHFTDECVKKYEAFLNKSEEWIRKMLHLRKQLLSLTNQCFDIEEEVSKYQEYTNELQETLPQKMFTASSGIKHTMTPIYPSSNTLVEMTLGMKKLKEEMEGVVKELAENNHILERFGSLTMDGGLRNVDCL

T4 sequence (Q13555 whole entry): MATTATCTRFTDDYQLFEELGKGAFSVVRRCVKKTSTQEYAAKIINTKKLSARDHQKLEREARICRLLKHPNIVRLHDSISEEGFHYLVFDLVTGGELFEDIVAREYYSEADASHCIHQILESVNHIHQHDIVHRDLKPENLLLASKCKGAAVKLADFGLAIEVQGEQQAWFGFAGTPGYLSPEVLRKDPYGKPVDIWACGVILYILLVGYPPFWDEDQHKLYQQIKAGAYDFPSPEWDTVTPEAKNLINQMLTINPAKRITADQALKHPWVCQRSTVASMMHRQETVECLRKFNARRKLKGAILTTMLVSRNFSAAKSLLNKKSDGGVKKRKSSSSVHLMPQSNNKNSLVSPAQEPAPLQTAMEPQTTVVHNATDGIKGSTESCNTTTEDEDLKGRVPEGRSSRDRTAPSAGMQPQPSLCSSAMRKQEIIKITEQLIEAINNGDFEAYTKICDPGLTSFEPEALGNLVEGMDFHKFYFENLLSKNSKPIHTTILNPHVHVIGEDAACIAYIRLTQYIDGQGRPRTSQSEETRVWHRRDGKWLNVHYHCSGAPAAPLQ
T5 sequence (Q9BUB5 whole entry): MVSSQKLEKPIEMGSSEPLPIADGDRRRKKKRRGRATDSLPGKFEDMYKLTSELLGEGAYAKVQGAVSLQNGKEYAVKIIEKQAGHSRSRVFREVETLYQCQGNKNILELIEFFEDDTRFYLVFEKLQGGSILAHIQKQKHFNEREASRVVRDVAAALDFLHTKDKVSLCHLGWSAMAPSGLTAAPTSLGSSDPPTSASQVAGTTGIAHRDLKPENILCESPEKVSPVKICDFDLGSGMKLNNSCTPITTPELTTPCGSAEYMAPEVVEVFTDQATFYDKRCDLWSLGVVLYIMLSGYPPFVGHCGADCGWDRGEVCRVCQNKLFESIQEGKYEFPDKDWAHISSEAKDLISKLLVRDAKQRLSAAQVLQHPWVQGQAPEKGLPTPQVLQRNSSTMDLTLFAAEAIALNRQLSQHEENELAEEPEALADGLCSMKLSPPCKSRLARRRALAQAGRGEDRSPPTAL
T1 sequence (P54764 20-986): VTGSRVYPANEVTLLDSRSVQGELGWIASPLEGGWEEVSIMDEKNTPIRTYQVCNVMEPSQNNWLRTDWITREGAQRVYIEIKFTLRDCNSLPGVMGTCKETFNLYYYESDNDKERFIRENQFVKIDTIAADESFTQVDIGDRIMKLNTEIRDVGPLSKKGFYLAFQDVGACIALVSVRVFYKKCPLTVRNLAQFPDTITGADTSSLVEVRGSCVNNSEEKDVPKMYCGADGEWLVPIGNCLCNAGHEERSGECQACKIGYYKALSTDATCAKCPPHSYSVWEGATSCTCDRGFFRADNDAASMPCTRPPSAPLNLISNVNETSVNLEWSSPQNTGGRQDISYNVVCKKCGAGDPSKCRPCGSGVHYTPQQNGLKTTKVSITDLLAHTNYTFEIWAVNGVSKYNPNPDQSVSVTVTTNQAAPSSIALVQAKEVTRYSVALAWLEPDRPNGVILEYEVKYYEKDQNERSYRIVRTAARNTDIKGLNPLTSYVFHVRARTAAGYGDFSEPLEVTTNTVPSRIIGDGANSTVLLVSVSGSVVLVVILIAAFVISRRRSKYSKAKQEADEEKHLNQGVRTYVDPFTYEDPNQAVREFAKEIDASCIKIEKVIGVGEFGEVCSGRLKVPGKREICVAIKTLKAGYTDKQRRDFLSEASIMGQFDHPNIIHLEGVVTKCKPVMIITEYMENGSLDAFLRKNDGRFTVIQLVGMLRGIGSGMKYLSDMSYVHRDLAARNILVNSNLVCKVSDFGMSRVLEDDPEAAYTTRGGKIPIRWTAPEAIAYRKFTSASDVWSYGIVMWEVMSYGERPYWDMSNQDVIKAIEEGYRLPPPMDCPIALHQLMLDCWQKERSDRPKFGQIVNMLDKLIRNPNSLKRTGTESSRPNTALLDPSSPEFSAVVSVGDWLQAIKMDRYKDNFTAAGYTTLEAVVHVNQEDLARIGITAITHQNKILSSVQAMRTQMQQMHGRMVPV
T2 sequence (P54756 25-1037): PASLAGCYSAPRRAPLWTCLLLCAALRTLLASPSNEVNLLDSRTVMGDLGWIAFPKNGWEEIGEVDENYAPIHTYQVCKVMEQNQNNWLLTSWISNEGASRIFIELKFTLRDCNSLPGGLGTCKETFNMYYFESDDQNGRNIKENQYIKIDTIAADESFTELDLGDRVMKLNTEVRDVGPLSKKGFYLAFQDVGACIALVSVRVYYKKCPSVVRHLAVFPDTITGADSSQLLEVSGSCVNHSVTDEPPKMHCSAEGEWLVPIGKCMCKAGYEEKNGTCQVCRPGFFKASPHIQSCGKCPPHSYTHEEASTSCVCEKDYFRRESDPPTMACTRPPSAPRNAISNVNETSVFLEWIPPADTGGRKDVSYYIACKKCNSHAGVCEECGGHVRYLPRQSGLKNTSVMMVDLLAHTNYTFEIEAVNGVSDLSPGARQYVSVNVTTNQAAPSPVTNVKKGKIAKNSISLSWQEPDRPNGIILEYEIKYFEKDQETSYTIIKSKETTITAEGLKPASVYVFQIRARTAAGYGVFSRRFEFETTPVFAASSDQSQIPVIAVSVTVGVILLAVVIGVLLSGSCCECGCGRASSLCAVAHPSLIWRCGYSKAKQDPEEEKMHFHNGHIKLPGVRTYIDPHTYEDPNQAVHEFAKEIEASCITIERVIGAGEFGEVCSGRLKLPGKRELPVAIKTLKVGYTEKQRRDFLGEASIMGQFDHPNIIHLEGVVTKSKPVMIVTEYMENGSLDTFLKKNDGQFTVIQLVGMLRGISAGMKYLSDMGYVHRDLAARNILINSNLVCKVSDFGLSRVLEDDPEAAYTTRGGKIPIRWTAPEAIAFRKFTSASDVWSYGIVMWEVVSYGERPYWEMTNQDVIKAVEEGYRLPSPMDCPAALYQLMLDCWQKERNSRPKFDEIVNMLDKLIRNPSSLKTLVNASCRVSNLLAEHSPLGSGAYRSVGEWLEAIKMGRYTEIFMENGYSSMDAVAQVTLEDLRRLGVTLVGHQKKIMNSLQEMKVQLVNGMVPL

For `CC#CC(=O)N1CCC[C@H]1c1nc(-c2ccc(C(=O)Nc3ccccn3)cc2)c2c(N)nccn12` [acalabrutinib], the “Percentage inhibition of kinase enzyme activity” value (from here on “Percentage inhibition”) at EPHA4 is recorded as -3.03%; at EPHA5, -1.17%; at AurA, 2.34%; at CaMK2γ, -1.85%; at MNK1, 11.59%; at MST2, -3.46%. The “Percentage inhibition” value on PGK is -3.70%; on TBK1 it was 2.14%.
Regarding `C=CC(=O)N1CCC[C@@H](n2nc(-c3ccc(Oc4ccccc4)cc3)c3c(N)ncnc32)C1` [ibrutinib], the “Percentage inhibition” value at EPHA4 is 12.63%; at EPHA5 it was 25.73%; at AurA, 29.84%; at CaMK2γ, -1.83%; on MNK1 it was 14.52%; on MST2, 16.65%. The “Percentage inhibition” value is given as 1.89% on PGK and 0.83% on TBK1.
For the molecule `O=C(c1ccc(Oc2ccccc2)cc1Cl)c1c[nH]c2ncnc(N[C@@H]3CC[C@@H](CO)OC3)c12` [nemtabrutinib], the “Percentage inhibition” value at EPHA4 came out at 82.34%; on EPHA5 it was 100.38%; on AurA it was 77.82%; on CaMK2γ, 1.06%; on MNK1, 7.10%; on MST2, 86.96%. The “Percentage inhibition” value on PGK is -2.11%; at TBK1, 1.71%.
Consider `COc1ccc(F)cc1C(=O)NCc1ccc(-c2nn([C@@H](C)C(F)(F)F)c(N)c2C(N)=O)cc1` [pirtobrutinib], for which the “Percentage inhibition” value at EPHA4 was 9.50%; on EPHA5 it was 0.45%; at AurA it was 27.17%; on CaMK2γ, -1.71%; on MNK1, 2.15%; at MST2 it was 6.74%. Further, the “Percentage inhibition” value at PGK was 0.94%; on TBK1, 2.58%.
Take `C=CC(=O)N1CCC([C@@H]2CCNc3c(C(N)=O)c(-c4ccc(Oc5ccccc5)cc4)nn32)CC1` [zanubrutinib]: the “Percentage inhibition” value was 0.04% on EPHA4 and 13.96% on EPHA5.
